Results taken from ChEMBL document CHEMBL4364246, “Synthesis and biological evaluation of 5-aminoethyl benzophenanthridone derivatives as DNA topoisomerase IB inhibitors” (Eur J Med Chem, 2019).
Activity calls are given as the source filed them. The rule behind the calls is not given here.

Key:
[1] = target: T1, DNA topoisomerase 1 (Homo sapiens) (UniProt P11387); assay: Inhibition of recombinant TOP1 (unknown origin) using 3'-[32P]-labeled 117 bp DNA oligonucleotide assessed as […] TOP1-mediated DNA cleavage incubated for 20 mins by PAGE analysis relative to 1 uM CPT
T1 sequence (whole entry): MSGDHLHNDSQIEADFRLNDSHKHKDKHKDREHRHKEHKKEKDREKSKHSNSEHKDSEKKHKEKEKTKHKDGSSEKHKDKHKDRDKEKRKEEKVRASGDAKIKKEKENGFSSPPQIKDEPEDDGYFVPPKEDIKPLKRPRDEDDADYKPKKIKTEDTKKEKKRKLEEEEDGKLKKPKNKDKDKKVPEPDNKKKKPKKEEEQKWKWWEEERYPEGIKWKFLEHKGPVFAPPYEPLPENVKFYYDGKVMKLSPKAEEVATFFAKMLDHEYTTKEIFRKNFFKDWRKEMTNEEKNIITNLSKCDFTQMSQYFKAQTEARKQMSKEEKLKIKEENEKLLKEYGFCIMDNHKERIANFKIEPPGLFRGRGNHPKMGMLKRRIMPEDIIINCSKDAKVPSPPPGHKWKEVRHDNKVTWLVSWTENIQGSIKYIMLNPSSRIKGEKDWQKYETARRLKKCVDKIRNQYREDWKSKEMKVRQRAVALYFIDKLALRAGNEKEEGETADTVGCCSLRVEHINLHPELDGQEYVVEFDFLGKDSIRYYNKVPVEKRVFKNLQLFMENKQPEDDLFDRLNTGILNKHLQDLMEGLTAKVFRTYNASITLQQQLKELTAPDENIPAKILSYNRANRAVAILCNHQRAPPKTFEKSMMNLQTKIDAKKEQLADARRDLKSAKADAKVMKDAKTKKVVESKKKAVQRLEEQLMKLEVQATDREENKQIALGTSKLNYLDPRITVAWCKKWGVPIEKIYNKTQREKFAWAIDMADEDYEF

A549 = assay: cells; conditions: Homo sapiens, A549, 72 h
MCF7 = assay: cells; conditions: Homo sapiens, MCF7, 72 h
HCT-116 = assay: cells; conditions: Homo sapiens, HCT-116, 72 h
DU-145 = assay: cells; conditions: Homo sapiens, DU-145, 72 h
[2] = target: T1, DNA topoisomerase 1 (Homo sapiens); assay: Inhibition of recombinant TOP1 (unknown origin) using 3'-[32P]-labeled 117 bp DNA oligonucleotide assessed as TOP1-mediated DNA cleavage by measuring induction and stabilization of cleavage sites 17, 35 and 79 incubated for 20 mins by PAGE analysis
[3] = target: T1, DNA topoisomerase 1 (Homo sapiens); assay: Inhibition of recombinant TOP1 (unknown origin) using 3'-[32P]-labeled 117 bp DNA oligonucleotide assessed as TOP1-mediated DNA cleavage by measuring induction and stabilization of cleavage sites 17, 35 and 79 at 1 uM incubated for 20 mins by PAGE analysis
[4] = target: T1, DNA topoisomerase 1 (Homo sapiens); assay: Inhibition of TOP1 in human HCT116 cells assessed as induction of cellular TOP1cc formation incubated for 1 hr by chemiluminescence based assay; format: cell-based
[5] = target: T1, DNA topoisomerase 1 (Homo sapiens); assay: Inhibition of TOP1 in human HCT116 cells assessed as induction of cellular TOP1cc formation at 25 uM incubated for 1 hr by chemiluminescence based assay; format: cell-based
[6] = target: T1, DNA topoisomerase 1 (Homo sapiens); assay: Inhibition of TOP1 in human HCT116 cells assessed as induction of DNA damage by measuring increase in gammaH2AX foci at 1 uM incubated for 3 hrs by DAPI staining based immunofluorescence microscopic method; format: cell-based

| SMILES | inhibition [1] [%] | GI50 (A549) [µM] | GI50 (MCF7) [µM] | GI50 (HCT-116) [µM] | GI50 (DU-145) [µM] | Activity [2] | Activity [3] | Activity [4] | Activity [5] | Activity [6] |
| --- | --- | --- | --- | --- | --- | --- | --- | --- | --- | --- |
| COc1cc2c(=O)n(CCN(C)S(=O)(=O)C3CC3)c3c4cc5c(cc4ccc3c2cc1OC)OCO5 | 20 to 50 | 15 | 5.8 | 7.9 | 10 |  |  |  |  |  |
| COc1cc2c(=O)n(CCNS(=O)(=O)C3CC3)c3c4cc5c(cc4ccc3c2cc1OC)OCO5 | 50 to 75 | 4.3 | 3 | 5.2 | 1.3 | Dose-dependent effect |  |  |  |  |
| COc1cc2c(=O)n(C)c3c4cc5c(cc4ccc3c2cc1OC)OCO5 |  | 39 | 31 | 74 | 64 |  |  |  |  |  |
| COc1cc2c(=O)n(CCN(C)S(=O)(=O)N(C)C)c3c4cc5c(cc4ccc3c2cc1OC)OCO5 | 20 to 50 | 7.9 | 1.5 | 0.96 | 15 |  |  |  |  |  |
| COc1cc2c3c(n(CCCNCCO)c(=O)c2cc1OC)-c1cc2c(cc1C3=O)OCO2 |  |  |  |  |  |  | Active |  |  |  |
| COc1cc2c(=O)n(CCN(C)P3(=O)OCCO3)c3c4cc5c(cc4ccc3c2cc1OC)OCO5 | 50 to 75 |  |  |  |  | Dose-dependent effect |  |  |  |  |
| COc1cc2c(=O)n(CCN(C)P(=O)(OC)OC)c3c4cc5c(cc4ccc3c2cc1OC)OCO5 | 50 to 75 | 14 | 10 | 9.2 | 5.3 | Dose-dependent effect |  |  |  |  |
| COc1cc2c(=O)n(CCNP(=O)(OC)OC)c3c4cc5c(cc4ccc3c2cc1OC)OCO5 | 0 to 50 | 41 | 48 | 51 | 39 |  |  |  |  |  |
| COc1cc2c(=O)n(CCNC(=O)C3CC3)c3c4cc5c(cc4ccc3c2cc1OC)OCO5 | 20 to 50 | 1.3 | 2.2 | 5.3 | 7.8 |  |  |  |  |  |
| COc1cc2c(=O)n(CCN(C)S(=O)(=O)N3CCOCC3)c3c4cc5c(cc4ccc3c2cc1OC)OCO5 | 20 to 50 | 35 | 64 | 40 | 48 |  |  |  |  |  |
| COc1cc2c(=O)n(CCNS(=O)(=O)N3CCOCC3)c3c4cc5c(cc4ccc3c2cc1OC)OCO5 | 50 to 75 | 2.9 | 0.89 | 1.1 | 1.6 | Dose-dependent effect |  |  |  |  |
| COc1cc2c(=O)n(CCN(C)S(=O)(=O)C(F)(F)F)c3c4cc5c(cc4ccc3c2cc1OC)OCO5 | 0 to 50 | 42 | 35 | 86 | 65 |  |  |  |  |  |
| COc1cc2c(=O)n(CCNS(=O)(=O)N(C)C)c3c4cc5c(cc4ccc3c2cc1OC)OCO5 | 20 to 50 | 35 | 21 | 30 | 45 |  |  |  |  |  |
| COc1cc2c(=O)n(CCNS(=O)(=O)N3CCCC3)c3c4cc5c(cc4ccc3c2cc1OC)OCO5 | 0 to 50 | 61 | 38 | 34 | 79 |  |  |  |  |  |
| COc1cc2c(=O)n(CCN(C)S(=O)(=O)N3CCCC3)c3c4cc5c(cc4ccc3c2cc1OC)OCO5 | 20 to 50 | 5.3 | 3.8 | 2.5 | 3.1 |  |  |  |  |  |
| CC[C@@]1(O)C(=O)OCc2c1cc1n(c2=O)Cc2cc3ccccc3nc2-1 |  |  |  |  |  |  | inactive | Dose-dependent effect | Active | Active |
